Source: patent publication US11040016B2, “Composition for alleviating, preventing or treating female menopausal symptoms, containing, as active ingredient, pinitol, D-chiro-inositol or analog compounds thereof” (DY NATURAL CO., LTD, priority 2016, dated 2021)

How the values were obtained:
[1] = tested on: 17β-estradiol; experiment: 17β-estradiol level in the blood of white rats after 8 weeks oral administration (ELISA); assay type: in vivo, Sprague-Dawley (SD) white rats; details: female SD rats, 10, 20, 40 mg/kg oral once a day for 8 weeks, vs physiological saline
Description: Pinitol and D-chiro-inositol were purchased from Biosearch Life (Camino de Purchil, 66. 18004 Granada, Spain). Six-month-old female Sprague-Dawley (SD) white rats (Orient, Korea) were divided into a test group administered with pinitol or D-chiro-inositol and a control group administered with physiological saline while ten animals were used in the test for each of the groups. The rats were bred in a breeding room controlled under a temperature of 22±1° C., humidity of 55±1%, and 12-hour light/dark cycle. The rats were given free access to food and water, and for 7 days after entrance, the rats were acclimated for the breeding environment, and then were used for tests. Physiological saline and pinitol or D-chiro-inositol were orally administered at various doses (10 mg/kg, 20 mg/kg, or 40 mg/kg) at the same amount once a day for 8 weeks. […] The levels of hormones and proteins in the blood were measured according to the manufacturer's manual by using the ELISA kit (Enzo Life Sciences, U.S.A.) for measurement of 17β-estradiol or sex-hormone binding globulin (SHBG) in the blood. […] After the completion of the last administration, the 17β-estradiol and sex-hormone binding globulin (SHBG) levels in the blood were measured by ELISA kit. […]

[2] = tested on: sex-hormone binding globulin (SHBG); experiment: SHBG level in the blood of white rats after 8 weeks oral administration (ELISA); assay type: in vivo, Sprague-Dawley (SD) white rats; details: female SD rats
Description: Pinitol and D-chiro-inositol were purchased from Biosearch Life (Camino de Purchil, 66. 18004 Granada, Spain). Six-month-old female Sprague-Dawley (SD) white rats (Orient, Korea) were divided into a test group administered with pinitol or D-chiro-inositol and a control group administered with physiological saline while ten animals were used in the test for each of the groups. The rats were bred in a breeding room controlled under a temperature of 22±1° C., humidity of 55±1%, and 12-hour light/dark cycle. The rats were given free access to food and water, and for 7 days after entrance, the rats were acclimated for the breeding environment, and then were used for tests. Physiological saline and pinitol or D-chiro-inositol were orally administered at various doses (10 mg/kg, 20 mg/kg, or 40 mg/kg) at the same amount once a day for 8 weeks. After the last oral administration, the rats were fasted overnight and then anesthetized with ether, and the abdomen was cut open, and then blood was collected from the abdominal vein. The collected blood was transferred to a heparinized tube, followed by centrifugation at 2.500 rpm for 15 minutes for 4° C., thereby separating serum and plasma. The separated blood was stored at −80° C. until the next test. The levels of hormones and proteins in the blood were measured according to the manufacturer's manual by using the ELISA kit (Enzo Life Sciences, U.S.A.) for measurement of 17β-estradiol or sex-hormone binding globulin (SHBG) in the blood. In order to analyze the effects of pinitol or D-chiro-inositol (DCI) on the levels or activity of female hormones, which are blood indexes associated with menopausal symptoms, in female mature Sprague-Dawley (SD) white rats, a test was conducted. The physiological saline for the control group or pinitol or D-chiro-inositol (10 mg/kg, 20 mg/kg, and 40 mg/kg) for the test groups were orally administered at the predetermined time once a day for 8 weeks. After the completion of the last administration, the 17β-estradiol and sex-hormone binding globulin (SHBG) levels in the blood were measured by ELISA kit. […] Therefore, it could be confirmed that the SHBG level in the blood was decreased by pinitol or D-chiro-inositol, leading to increases in activity of female hormones. According to the test results, it was confirmed that both pinitol and D-chiro-inositol can alleviate female menopause symptoms by increasing the 17β-estradiol levels in the blood and decreasing the SHBG levels in the blood.

[3] = tested on: middle-aged women; experiment: Menopause Rating Scale (MRS) survey in middle-aged women; assay type: in vivo; details: for alleviation rate of menopausal symptoms: MRS vs placebo; for MRS score post-taking compared with placebo taking group and pre-taking: middle-aged women, 600, 1,200, 2,400 mg once a day for 8 weeks
Description: Forty middle-aged women aged 40 or more were divided into four groups each having ten women, and the four groups were designated as a control group taking a placebo and three test groups taking pinitol. Similarly, forty middle-aged women aged 40 or more were divided into four groups each having ten women, and the four groups were designated as a control group taking a placebo and three test groups taking D-chiro-inositol. Thereafter, the placebo, pinitol, or D-chiro-inositol was administered at various concentrations for 8 weeks in a double-blind fashion. The pinitol, D-chiro-inositol, or placebo was administered at 600 mg, 1,200 mg, and 2,400 mg a day. The blood was taken from the arm vein at the same time, 2:00 pm, before intake and after the last intake, and then transferred to heparinized tubes, followed by centrifugation at 2,500 rpm (4° C.) for 15 minutes, and therefore, the plasma was separated by transfer to new tubes. The separated plasma was used to measure sex hormone levels in the blood. Since subjective symptoms account for a large proportion of menopausal symptoms, several measures are used to assess the degrees of menopausal clinical symptoms. For assessment of menopausal clinical symptoms, Kupperman's index has been used for a long time. However, questions of vaginal dryness, reduction of sexual desire, and the like, are missing in the Kupperman's index, and therefore, the Menopause Rating Scale (MRS) and the Menopause-Specific Quality of Life Questionnaire (MENQOL), which are questionnaires supplementing such questions, are being widely used in current clinical trials. The MRS has been globally recognized to have reliability and feasibility due to its advantages of having a small number of questions, a total of 11 questions, and being simple and convenient, and thus the MRS is being recited in many studies (Table 1). In the present invention, the severity of menopausal symptoms was measured and analyzed by allowing the above middle-aged women clinical subjects to fill out the MRS questionnaire. The alleviating effects on female menopause symptoms were assessed by allowing the middle-aged women clinical subjects to fill out the Menopause Rating Scale (MRS) questionnaire pre- and post-intake of the placebo, pinitol, or D-chiro-inositol. [table] In order to assess the alleviating effects of female menopause symptoms by pinitol and D-chiro-inositol, a Korean-version Menopause Rating Scale (MRS) survey was performed. Eighty middle-aged 40 or more were divided into four groups, a placebo group and pinitol administration groups, each having ten women, and similarly, were divided into four groups, a placebo group and D-chiro-inositol administration groups, each having ten women. Thereafter, the placebo and 600 mg, 1,200 mg, and 2,400 mg of pinitol or D-chiro-inositol were administered once a day for 8 weeks in a double-blind fashion. The women were allowed to fill out the Menopause Rating Scale (MRS) questionnaire before and after taking the placebo, pinitol, or D-chiro-inositol. The scores of the MRS questionnaire were calculated as a total score. The 0-4 points indicate a good menopausal state, which is a smooth menopause state. A total of 5-8 points indicate a slight menopausal state, requiring management. A total of 9-15 points indicate a severe menopausal state, requiring precise diagnosis and treatment by specialists because of menopausal diseases. Last, a total of 16 points or more indicates an extremely severe menopausal state, thereby urgently requiring therapy through minute management and long-term plans. […] The MRS measurement results could confirm that pinitol alleviated female menopause symptoms caused by female hormone reduction, such as reduction of sexual desire, insomnia, urogenital diseases and infections, joint and muscular diseases, depression, and hypersensitiveness.

[4] = tested on: 17β-estradiol; experiment: 17β-estradiol level in the blood of middle-aged women after 8 weeks administration (ELISA); assay type: in vivo; details: middle-aged women, 600, 1,200, 2,400 mg a day for 8 weeks
Description: (§1) Forty middle-aged women aged 40 or more were divided into four groups each having ten women, and the four groups were designated as a control group taking a placebo and three test groups taking pinitol. Similarly, forty middle-aged women aged 40 or more were divided into four groups each having ten women, and the four groups were designated as a control group taking a placebo and three test groups taking D-chiro-inositol. Thereafter, the placebo, pinitol, or D-chiro-inositol was administered at various concentrations for 8 weeks in a double-blind fashion. The pinitol, D-chiro-inositol, or placebo was administered at 600 mg, 1,200 mg, and 2,400 mg a day. The blood was taken from the arm vein at the same time, 2:00 pm, before intake and after the last intake, and then transferred to heparinized tubes, followed by centrifugation at 2,500 rpm (4° C.) for 15 minutes, and therefore, the plasma was separated by transfer to new tubes. The separated plasma was used to measure sex hormone levels in the blood. The levels of hormones and proteins in the blood were measured according to the manufacturer's manual by using the ELISA kit (Enzo Life Sciences, U.S.A.) for measurement of 17β-estradiol or sex-hormone binding globulin (SHBG) in the blood. In order to analyze the effects of pinitol and D-chiro-inositol on sex hormones in middle-aged women, forty middle-aged 40 or more were divided into four groups each having ten women, and the four groups were designated as a control group taking a placebo and three test groups taking pinitol. Similarly, forty middle-aged women aged 40 or more were divided into four groups each having ten women, and the four groups were designated as a control group taking a placebo and three test groups taking D-chiro-inositol. Thereafter, the placebo, pinitol, or D-chiro-inositol was administered at various concentrations for 8 weeks in a double-blind fashion. The pinitol or D-chiro-inositol was administered at 600 mg, 1,200 mg, and 2,400 mg a day for 8 weeks. As a result of the test, there was no significant change in 17β-estradiol level in the blood in the women between pre- and pro-administration of the placebo. […] According to the test results, it could be confirmed that, similar to the results in the white rats, pinitol and D-chiro-inositol can alleviate female menopause symptoms by increasing the 17β-estradiol levels in the blood and decreasing the SHBG levels in the blood.

[5] = tested on: sex-hormone binding globulin (SHBG); experiment: SHBG level in the blood of middle-aged women after 8 weeks administration (ELISA); assay type: in vivo
Description: as §1, with “The pinitol, D-chiro-inositol, or placebo was administered at 600 mg, 1,200 mg, and 2,400 mg a day.” left out, “The pinitol or D-chiro-inositol was administered at 600 mg, 1,200 mg, and 2,400 mg a day for 8 weeks.” left out

[6] = 10 mg/kg oral once a day for 8 weeks
[7] = 20 mg/kg oral once a day for 8 weeks
[8] = 40 mg/kg oral once a day for 8 weeks
[9] = middle-aged women, 600 mg once a day for 8 weeks
[10] = middle-aged women, 1,200 mg once a day for 8 weeks
[11] = middle-aged women, 2,400 mg once a day for 8 weeks
[12] = middle-aged women, 600 mg a day for 8 weeks
[13] = middle-aged women, 1,200 mg a day for 8 weeks
[14] = middle-aged women, 1,400 mg administration group, 8 weeks

O[C@H]1[C@H](O)[C@H](O)[C@@H](O)[C@H](O)[C@H]1O [D-chiro-inositol]
17β-estradiol level in the blood compared with control group [1]: significantly increased in a concentration-dependent manner | decrease of SHBG level in the blood compared with control group [2, 6]: about 7.0 nmol/L | decrease of SHBG level in the blood compared with control group [2, 7]: ~16.2 nmol/L | decrease of SHBG level in the blood compared with control group [2, 8]: ~21.1 nmol/L | decrease of average MRS score compared with placebo group [3, 9]: 5.7 points | alleviation rate of menopausal symptoms [3, 9]: about 40.7% | decrease of average MRS score compared with placebo group [3, 10]: 9.7 points | alleviation rate of menopausal symptoms [3, 10]: ~69.3% | decrease of average MRS score compared with placebo group [3, 11]: 10.3 points | alleviation rate of menopausal symptoms [3, 11]: ~73.6% | MRS score post-taking compared with placebo taking group and pre-taking [3]: significantly decreased | 17β-estradiol level in the blood compared with placebo administration group [4]: significantly increased in a concentration-dependent manner | 17β-estradiol level in the blood, pre- versus post-administration [4]: no particular difference | decrease of SHBG level in the blood compared with placebo administration group [5, 12]: about 8.7 nmol/L | decrease of SHBG level in the blood compared with placebo administration group [5, 13]: ~15.9 nmol/L | decrease of SHBG level in the blood compared with placebo administration group [5, 14]: ~18.4 nmol/L

CO[C@H]1[C@H](O)[C@@H](O)[C@@H](O)[C@H](O)[C@@H]1O [pinitol]
17β-estradiol level in the blood compared with control group [1]: significantly increased in a concentration-dependent manner | decrease of SHBG level in the blood compared with control group [2, 6]: about 4.2 nmol/L | decrease of SHBG level in the blood compared with control group [2, 7]: ~10.0 nmol/L | decrease of SHBG level in the blood compared with control group [2, 8]: ~12.2 nmol/L | decrease of average MRS score compared with placebo group [3, 9]: 4.3 points | alleviation rate of menopausal symptoms [3, 9]: about 32.6% | decrease of average MRS score compared with placebo group [3, 10]: 8.4 points | alleviation rate of menopausal symptoms [3, 10]: ~63.6% | decrease of average MRS score compared with placebo group [3, 11]: 9.1 points | alleviation rate of menopausal symptoms [3, 11]: ~68.9% | MRS score post-taking compared with placebo taking group and pre-taking [3]: significantly decreased | 17β-estradiol level in the blood compared with placebo administration group [4]: significantly increased in a concentration-dependent manner | 17β-estradiol level in the blood, pre- versus post-administration [4]: no particular difference | decrease of SHBG level in the blood compared with placebo administration group [5, 12]: about 8.3 nmol/L | decrease of SHBG level in the blood compared with placebo administration group [5, 13]: ~16.0 nmol/L | decrease of SHBG level in the blood compared with placebo administration group [5, 14]: ~18.6 nmol/L | SHBG level in the blood, pre- versus post-administration ([5]; middle-aged women, 8 weeks): no particular difference
